These are literature values, as cited in publication PMC8966651, “PKPD Modeling of the Inoculum Effect of Acinetobacter baumannii on Polymyxin B in vivo” (Frontiers in Pharmacology, 2022).

For this series, the system named is A. baumannii. To be noted: ref Akrong et al., 2021, cited from earlier work; for increase of in vitro IK-HL: starting inoculum from 10^5 to 10^7 CFU/ml. An excerpt: High bacterial counts may alter antibiotherapy success due to an inoculum effect (IE) ([Chastre and Fagon, 2002]; [Koenig and Truwit, 2006]; [Kalanuria et al., 2014]), corresponding to a reduction of the antibiotic activity as bacterial count increases ([Harada et al., 2014]; [Lenhard and Bulman, 2019]). This phenomenon has been described in vitro for ß-lactam antibiotics used against ß-lactamases-producing bacteria such as Escherichia coli and Klebsiella pneumoniae ([Bedenić et al., 2001]; [Harada et al., 2014]; [Smith and Kirby, 2018]; [Lenhard and Bulman, 2019]). It has also been reported i ... || An innovative aspect of this study was the refinement of a PKPD model, based on the model developed after in vitro TK experiments conducted with A. baumannii and PMB ([Akrong et al., 2021]). […] The different growth behavior between in vitro and in vivo has been associated in literature ... || In both in vitro and in vivo PKPD models, a decrease in PMB killing effect was related to the baseline inoculum and was modeled either as a decrease of the in vivo PMB killing rate constant (kslope) or as an increase of the in vitro half-maximal effective concentration of PMB (EC50), making PMB IE difficult to compare between in vitro and in vivo. In vivo IK-HL were derived from Equation 5 for each starting inoculum and various PMB concentrations to better illustrate the consequences of IE on PMB activity (Table 3).

Counter-ions that a name gives are not always drawn. Like-named read-outs stand apart in the source and are kept apart here. Bridge positions count the residues as written; N and C are the ends. Square brackets hold non-standard residues; d marks the D form. Peptide text beside a SMILES is read from it. * marks the point of attachment. X1 = CC[C@H](C)CCCCC(=O)*; Dab = NCC[C@H](N)C(=O)O

Regarding `CC[C@H](C)CCCCC(=O)N[C@@H](CCN)C(=O)N[C@H](C(=O)N[C@@H](CCN)C(=O)N[C@H]1CCNC(=O)[C@H]([C@@H](C)O)NC(=O)[C@H](CCN)NC(=O)[C@H](CCN)NC(=O)[C@H](CC(C)C)NC(=O)[C@@H](Cc2ccccc2)NC(=O)[C@H](CCN)NC1=O)[C@@H](C)O` [PMB, Polymyxin B sulfate] (X1-[Dab]T[Dab][Dab][Dab][dF]L[Dab][Dab]T; lactam 4-C), the “in vitro IK-HL” value reads like this: (PMB 0.25 mg/L, starting inoculum 10^5 CFU/ml) 10 min; (PMB 0.25 mg/L, starting inoculum 10^7 CFU/ml) 24 min; (PMB 4 mg/L, starting inoculum 10^5 CFU/ml) 5 min; (PMB 4 mg/L, starting inoculum 10^7 CFU/ml) 8 min. The “increase of in vitro IK-HL” value (PMB 0.25 mg/L) is 140% and the “increase of in vitro IK-HL” value (PMB 4 mg/L) is 60%. Besides, where the note is “initial inoculum increased from 10^5 to 10^8 CFU/ml, static time-kill”, the “increase of the PMB concentration to reach 50% of maximal effect (EC50)” value is listed as 17 fold.
